By IC50 is commonly meant the concentration that gives 50% inhibition.

The values that follow come from US12336981B2, “Compounds and compositions for the inhibition of NAMPT” (Valo Health, Inc., priority 2010, dated 2025).

Values joined by “and” are separate entries in the source; they are usually repeats but may differ in a detail not shown here. Equal entries are not always repeated.

The first test concerns A2780 cells. Kind of test: In-vitro cell proliferation assay (SRB), A2780 cells. The test is classed as cell-based. To be noted: A2780 cells, 72 hours, SRB; read-out: A2780 IC50. The method, then:
In-Vitro Cell Proliferation Assay
After overnight incubation at 37° C. and 5% CO2, the compound titrations were performed in a separate dilution plate by serially diluting the compounds in DMSO to make a 1000× stock. The compounds were then further diluted to 10× final concentration in culture media, whereupon 20 μL of each dilution was added to the plated cells with controls (e.g. DMSO and blank) to make a final volume of 200 μL. The final DMSO concentration in each well was 0.1%. The plates were then incubated for 72 hours at 37° C. in a 5% CO2 incubator. The number of viable cells was then assessed using sulforhodamine B (SRB) assay. Cells were fixed at 4° C. for 1 hour with the addition of 50 μL 30% trichloroacetic acid (TCA) to make a final concentration of 6% TCA. The plates were washed four times with H2O and allowed to dry for at least 1 hour, whereupon 100 μL of a 4% SRB in 1% acetic acid solution was added to each well and incubated at room temperature for at least 30 minutes. The plates were then washed three times with 1% acetic acid, dried, and treated with 100 μL of 10 mM Tris-Base solution. The plates were then read in a microplate reader at an absorbance of 570 nm. Background was generated on a separate plate with media only.
Method for Determining % Inhibition
First, the signals from the background plate are averaged, then the background was subtracted from the test plates.
wherein X denotes the compound concentration 1, Y denotes the compound concentration 2, XX denotes the % inhibition at compound concentration 1 (X), and YY denotes the % inhibition at compound concentration 2 (Y).
Turning to `Cc1c(F)cccc1S(=O)(=O)c1ccc(CNC(=O)c2cc3ccncc3s2)cc1`, the IC50 was 21.4 nM.

The same test, now with this note: Homo sapiens, A2780, 72 h, A2780 cells, 72 hours, SRB; read-out: A2780 IC50.
`COc1cc(-n2cccn2)ccc1S(=O)(=O)c1ccc(CNC(=O)c2cnc3nccn3c2)cc1`: the IC50 is 8.7 nM. As for `CC(C)COc1cccc(S(=O)(=O)c2ccc(CNC(=O)c3cc4ccncc4s3)cc2)c1`, the IC50 stood at 25.2 nM. Still for that read-out and setting: with `COCc1cccc(S(=O)(=O)c2ccc(CNC(=O)c3cnc4nccn4c3)cc2)c1` the figure was 13.8 nM; with `O=C(NCc1ccc(S(=O)(=O)c2cccc(-c3ncccn3)c2)cc1)c1cnc2nccn2c1`, 13 nM; with `COc1cc(OC)cc(S(=O)(=O)c2ccc(CNC(=O)c3ccc4nccn4c3)cc2)c1`, 1.5 nM. Same read-out and setting: in the case of `N#CC1(c2ccc(S(=O)(=O)c3ccc(CNC(=O)c4cnc5nccn5c4)cc3)cc2)CCCC1` it was 4.7 nM; in that of `O=C(NCc1ccc(S(=O)(=O)c2ccc(C(=O)N3CCCC3)cc2)cc1)c1cc2ccncc2s1`, 1.7 nM; in that of `O=C(NCc1ccc(S(=O)(=O)c2ccc(C(=O)N3CCCC3)cc2)cc1)c1cnc2[nH]ncc2c1`, 9.3 nM. The same measure, in the same setting: in the case of `O=C(NCc1ccc(S(=O)(=O)c2ccc(-c3ccccc3)cc2)cc1)c1cnc2nccn2c1` it was 7.6 nM; in that of `Cc1cccc(S(=O)(=O)c2ccc(CNC(=O)c3cnc4nccn4c3)cc2)c1F` [N-({4-[(2-fluoro-3-methylbenzene)sulfonyl]phenyl}methyl)imidazo[1,2-a]pyrimidine-6-carboxamide], 21.5 nM.

As for `O=C(NCc1ccc(S(=O)(=O)c2cc(F)cc(F)c2)cc1)c1ccc2nccn2c1` [N-({4-[(3,5-difluorobenzene)sulfonyl]phenyl}methyl)imidazo[1,2-a]pyridine-6-carboxamide], the IC50 was determined as 1.5 nM.

For the compound `CCOc1cccc(S(=O)(=O)c2ccc(CNC(=O)c3cc4ccncc4s3)cc2)c1` [N-({4-[(3-ethoxybenzene)sulfonyl]phenyl}methyl)thieno[2,3-c]pyridine-2-carboxamide], the IC50 is 2.9 nM.

As to `O=C(NCc1ccc(S(=O)(=O)c2cccc3cc[nH]c23)cc1)c1cnc2[nH]ncc2c1` [N-{[4-(1H-indole-7-sulfonyl)phenyl]methyl}-1H-pyrazolo[3,4-b]pyridine-5-carboxamide], the IC50 is 43.2 nM.

`Cn1cc2ccc(S(=O)(=O)c3ccc(CNC(=O)c4cnc5[nH]ncc5c4)cc3)cc2n1` [N-{[4-(2-methyl-2H-indazole-6-sulfonyl)phenyl]methyl}-1H-pyrazolo[3,4-b]pyridine-5-carboxamide]: the IC50 amounted to 7 nM.

Staying with this test, now noted: Homo sapiens; A2780 cells, 72 hours, SRB; read-out: A2780 IC50.
For `O=C(NCc1ccc(S(=O)(=O)c2cccc(C(F)(F)F)c2)cc1)c1cnc2[nH]ncc2c1`, the IC50 is 10.4 nM.

The target of a further test is T1, NAMPT (Homo sapiens, UniProt P43490).
T1 construct: His tag; host or cells: E. coli
T1 sequence (P43490 whole entry): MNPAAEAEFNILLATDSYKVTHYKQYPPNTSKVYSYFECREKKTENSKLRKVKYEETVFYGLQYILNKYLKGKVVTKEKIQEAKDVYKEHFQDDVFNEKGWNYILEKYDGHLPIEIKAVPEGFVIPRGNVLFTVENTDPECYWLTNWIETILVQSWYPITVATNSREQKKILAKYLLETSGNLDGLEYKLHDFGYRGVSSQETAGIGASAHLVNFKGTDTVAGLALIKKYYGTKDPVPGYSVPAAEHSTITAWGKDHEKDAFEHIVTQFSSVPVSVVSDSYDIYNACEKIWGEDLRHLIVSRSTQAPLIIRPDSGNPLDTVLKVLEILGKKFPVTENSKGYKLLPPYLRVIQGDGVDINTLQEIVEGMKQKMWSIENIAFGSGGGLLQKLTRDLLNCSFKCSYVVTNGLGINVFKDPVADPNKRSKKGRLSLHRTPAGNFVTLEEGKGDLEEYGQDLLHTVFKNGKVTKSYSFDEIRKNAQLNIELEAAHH
As to the kind of experiment: Biochemical inhibition assay: NAMPT enzymatic reaction, NMN quantified by mass spectrometry. The following applies: NAMPT enzymatic assay; read-out: Biochem IC50. The method, then:
Biochemical Inhibition Assay
NAMPT Protein Purification
Recombinant His-tagged NAMPT was produced in E. coli cells, purified over a Ni column, and further purified over a size-exclusion column by XTAL Biostructures.
The NAMPT Enzymatic Reaction
The NAMPT enzymatic reactions were carried out in Buffer A (50 mM Hepes pH 7.5, 50 mM NaCl, 5 mM MgCl2, and 1 mM THP) in 96-well V-bottom plates. The compound titrations were performed in a separate dilution plate by serially diluting the compounds in DMSO to make a 100× stock. […] The compound and enzyme mix was incubated for 15 minutes at room temperature, then 10 μL of 10× substrate and co-factors in Buffer A were added to the test well to make a final concentration of 1 μM NAM, 100 μM 5-Phospho-D-ribose 1-diphosphate (PRPP), and 2.5 mM Adenosine 5′-triphosphate (ATP). The reaction was allowed to proceed for 30 minutes at room temperature, then was quenched with the addition of 11 μL of a solution of formic acid and L-Cystathionine to make a final concentration of 1% formic acid and 10 μM L-Cystathionine. Background and signal strength was determined by addition (or non-addition) of a serial dilution of NMN to a pre-quenched enzyme and cofactor mix.
A mass spectrometry-based assay was used to measure the NAMPT reaction product (NMN) and the internal control (L-Cystathionine). NMN and L-Cystathionine were detected using the services of Biocius Lifesciences with the RapidFire system. In short, the NMN and L-Cystathionine are bound to a graphitic carbon cartridge in 0.1% formic acid, eluted in 30% acetonitrile buffer, and injected into a Sciex 4000 mass spectrometer. The components of the sample were ionized with electrospray ionization and the positive ions were detected. […] The fragments are quantified and the analyzed by the following method.
First the NMN signal is normalized to the L-Cystathionine signal by dividing the NMN signal by the L-Cystathionine signal for each well. The signal from the background wells are averaged and subtracted from the test plates. […] IC50s are Determined Using Excel and this Formula.
Turning to `O=C(NCc1ccc(S(=O)(=O)c2cccc3c2sc2ccccc23)cc1)c1cc2cnccc2[nH]1`, the IC50 was 3.5 nM. On the same count and under the same terms, with `Cc1nc(-c2cccc(S(=O)(=O)c3ccc(CNC(=O)c4cc5ccncc5o4)cc3)c2)no1` the figure was 7.9 nM; with `O=C(NC1CCCC1)c1cccc(S(=O)(=O)c2ccc(CNC(=O)c3cc4ccncc4o3)cc2)c1`, 6.6 nM. As for `CN(C)S(=O)(=O)c1cccc(S(=O)(=O)c2ccc(CNC(=O)c3cc4ccncc4o3)cc2)c1`, the IC50 stood at 2 nM. The same measure, in the same setting: in the case of `CCS(=O)(=O)c1cccc(S(=O)(=O)c2ccc(CNC(=O)c3cc4ccncc4o3)cc2)c1` it was 2.7 nM. Same read-out and setting: in the case of `O=C(NCc1ccc(S(=O)(=O)c2cccc(N3CCOCC3)c2)cc1)c1cc2ccncc2[nH]1` it was 20.7 nM and 8.4 nM.

As for `CCCS(=O)(=O)Nc1cccc(S(=O)(=O)c2ccc(CNC(=O)c3cc4ccncc4s3)cc2)c1`, the IC50 stood at 1.5 nM. Still for that read-out and setting: in the case of `O=C(NCc1ccc(S(=O)(=O)c2ccc(Cn3ccnc3)cc2)cc1)c1cc2ccncc2o1` it was 19 nM; in that of `CC(C)Oc1ccc(S(=O)(=O)c2ccc(CNC(=O)c3cnc4nccn4c3)cc2)cc1`, 4.3 nM; in that of `O=C(NCc1ccc(S(=O)(=O)c2ccc(F)c(C(F)(F)F)c2)cc1)c1cnc2nccn2c1`, 8 nM.

In the case of `O=C(NCc1ccc(S(=O)(=O)c2cc(C(F)(F)F)ccn2)cc1)c1ccc2nccn2c1` [N-({4-[4-(trifluoromethyl)pyridine-2-sulfonyl]phenyl}methyl)imidazo[1,2-a]pyridine-6-carboxamide], the concentration for half-maximal inhibition (IC50) was found to be 19.7 nM. On the same count and under the same terms, in the case of `O=C(NCc1ccc(S(=O)(=O)c2ccc(F)c(OCC(F)(F)F)c2)cc1)c1cnc2[nH]ncc2c1` [N-[(4-{[4-fluoro-3-(2,2,2-trifluoroethoxy)benzene]sulfonyl}phenyl)methyl]-1H-pyrazolo[3,4-b]pyridine-5-carboxamide] it was 10 nM; in that of `O=C(NCc1ccc(S(=O)(=O)c2cccc3c2OCC3)cc1)c1cnc2[nH]ncc2c1` [N-{[4-(2,3-dihydro-1-benzofuran-7-sulfonyl)phenyl]methyl}-1H-pyrazolo[3,4-b]pyridine-5-carboxamide], 24.8 nM. Still for that read-out and setting: in the case of `Cn1cc2ccc(S(=O)(=O)c3ccc(CNC(=O)c4cc5cnccc5[nH]4)cc3)cc2n1` [N-{[4-(2-methyl-2H-indazole-6-sulfonyl)phenyl]methyl}-1H-pyrrolo[3,2-c]pyridine-2-carboxamide] it was 2.5 nM; in that of `O=C(NCc1ccc(S(=O)(=O)c2cncc(Cl)c2)cc1)c1ccc2nccn2c1` [N-{[4-(5-chloropyridine-3-sulfonyl)phenyl]methyl}imidazo[1,2-a]pyridine-6-carboxamide], 24.4 nM; in that of `COc1cccc(S(=O)(=O)c2ccc(CNC(=O)c3cc4ccncc4o3)cc2)n1` [N-{[4-(6-methoxypyridine-2-sulfonyl)phenyl]methyl}furo[2,3-c]pyridine-2-carboxamide], 2.5 nM. Still for that read-out and setting: with `O=C(NCc1ccc(S(=O)(=O)c2cncc3ccccc23)cc1)c1cnc2nccn2c1` [N-{[4-(isoquinoline-4-sulfonyl)phenyl]methyl}imidazo[1,2-a]pyrimidine-6-carboxamide] the figure was 1.6 nM. Regarding `O=C(NCc1ccc(S(=O)(=O)c2cnc3ccccc3c2)cc1)c1cc2ccncc2o1` [N-{[4-(quinoline-3-sulfonyl)phenyl]methyl}furo[2,3-c]pyridine-2-carboxamide], the IC50 was 4.2 nM.

The same test, now with this note: NAMPT enzymatic reaction; read-out: Biochem IC50.
In the case of `Cc1ccc(S(=O)(=O)c2ccc(CNC(=O)c3cnc4[nH]ncc4c3)cc2)cc1Cl`, the IC50 turned out to be 6.1 nM.

For `CCCOc1ccc(S(=O)(=O)c2ccc(CNC(=O)c3cc4cnccc4[nH]3)cc2)cc1Cl`, the IC50 came to 74 nM. For the compound `Cc1cc(F)cc(S(=O)(=O)c2ccc(CNC(=O)c3cc4ccncc4o3)cc2)c1`, the IC50 worked out at 3.4 nM. Regarding `CC(C)(C)c1cccc(S(=O)(=O)c2ccc(CNC(=O)c3ccc4nccn4c3)cc2)c1`, the IC50 was determined as 9.7 nM. With `COc1ccc(Cl)cc1S(=O)(=O)c1ccc(CNC(=O)c2ccc3nccn3c2)cc1`, the IC50 came out at 19.1 nM.

Turning to `CCCOc1ccc(Cl)cc1S(=O)(=O)c1ccc(CNC(=O)c2ccc3nccn3c2)cc1`, the IC50 is 8 nM. The same measure, in the same setting: in the case of `O=C(NCc1ccc(S(=O)(=O)c2ccccc2OC(F)(F)F)cc1)c1ccc2nccn2c1` [N-(4-(2-(trifluoromethoxy)phenylsulfonyl)benzyl)imidazo[1,2-a]pyridine-6-carboxamide] it was 8 nM. Turning to “N-({4-[(2,4-dichloro-3-methoxybenzene)sulfonyl]phenyl}methyl)-1H-pyrazolo[3,4-b]pyridine-5-carboxamide”, the IC50 was found to be 20 nM.
